Assay results taken from publication PMC8159961, “Exploring protein hotspots by optimized fragment pharmacophores” (Nature Communications, 2021).

How the values were obtained:
human 5-HT7b receptor = biological target: T1, human 5-HT7b receptor (Homo sapiens, UniProt P34969); experiment: GPCR radioligand binding assay, [3H]-5-CT displacement, HEK293 membranes; details: for 5-HT7 % Inhibition by plate position: 10 µM; for %inh 5-HT7 exp_1: replicate exp_1; for %inh 5-HT7 exp_2: replicate exp_2; for %inh 5-HT7 average: average of exp_1 and exp_2
T1 construct: expressed in transfected cells

human 5-HT1A receptor = biological target: T2, human 5-HT1A receptor (Homo sapiens, UniProt P08908); experiment: GPCR radioligand binding assay, [3H]-8-OH-DPAT displacement, HEK293 membranes; details: for 5-HT1A % Inhibition by plate position: 10 µM; for %inh 5-HT1A average: average of exp_1 and exp_2; for %inh 5-HT1A exp_1: replicate exp_1; for %inh 5-HT1A exp_2: replicate exp_2; for %inh 5-HT1A corrected*: average, values below 0 and above 100% were set as 0 and 100
T2 construct: expressed in transfected cells
T2 sequence (P08908 1-422): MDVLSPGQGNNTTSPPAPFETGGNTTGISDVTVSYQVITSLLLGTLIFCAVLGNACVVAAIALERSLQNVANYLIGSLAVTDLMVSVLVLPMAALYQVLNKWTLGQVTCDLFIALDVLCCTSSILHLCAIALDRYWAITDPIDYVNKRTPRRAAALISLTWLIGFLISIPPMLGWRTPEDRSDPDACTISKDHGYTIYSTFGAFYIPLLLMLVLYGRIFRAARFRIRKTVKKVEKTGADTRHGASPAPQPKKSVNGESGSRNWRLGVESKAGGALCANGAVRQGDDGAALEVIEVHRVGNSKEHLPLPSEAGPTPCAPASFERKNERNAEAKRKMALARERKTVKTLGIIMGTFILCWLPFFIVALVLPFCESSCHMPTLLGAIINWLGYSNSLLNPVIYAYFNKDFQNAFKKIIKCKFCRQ

human 5-HT6 receptor = biological target: T3, human 5-HT6 receptor (Homo sapiens, UniProt P50406); experiment: GPCR radioligand binding assay, [3H]-LSD displacement, HEK293 membranes; details: for 5-HT6 % Inhibition by plate position: 10 µM; for %inh 5-HT6 average: average of exp_1 and exp_2; for %inh 5-HT6 corrected*: average, values below 0 and above 100% were set as 0 and 100; for %inh 5-HT6 exp_1: replicate exp_1; for %inh 5-HT6 exp_2: replicate exp_2
T3 construct: expressed in transfected cells
T3 sequence (P50406 whole entry): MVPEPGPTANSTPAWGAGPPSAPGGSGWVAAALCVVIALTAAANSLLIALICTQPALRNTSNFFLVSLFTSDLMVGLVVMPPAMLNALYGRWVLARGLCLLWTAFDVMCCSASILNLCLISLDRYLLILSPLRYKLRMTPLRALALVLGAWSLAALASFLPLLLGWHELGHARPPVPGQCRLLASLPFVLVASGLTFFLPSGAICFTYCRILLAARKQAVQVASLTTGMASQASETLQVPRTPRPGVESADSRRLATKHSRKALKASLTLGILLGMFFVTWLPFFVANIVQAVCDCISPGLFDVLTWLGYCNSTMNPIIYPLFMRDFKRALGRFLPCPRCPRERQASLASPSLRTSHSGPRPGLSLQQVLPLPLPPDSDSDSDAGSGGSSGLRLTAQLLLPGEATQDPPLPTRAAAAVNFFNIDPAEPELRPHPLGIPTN

T1 sequence (P34969 1-432): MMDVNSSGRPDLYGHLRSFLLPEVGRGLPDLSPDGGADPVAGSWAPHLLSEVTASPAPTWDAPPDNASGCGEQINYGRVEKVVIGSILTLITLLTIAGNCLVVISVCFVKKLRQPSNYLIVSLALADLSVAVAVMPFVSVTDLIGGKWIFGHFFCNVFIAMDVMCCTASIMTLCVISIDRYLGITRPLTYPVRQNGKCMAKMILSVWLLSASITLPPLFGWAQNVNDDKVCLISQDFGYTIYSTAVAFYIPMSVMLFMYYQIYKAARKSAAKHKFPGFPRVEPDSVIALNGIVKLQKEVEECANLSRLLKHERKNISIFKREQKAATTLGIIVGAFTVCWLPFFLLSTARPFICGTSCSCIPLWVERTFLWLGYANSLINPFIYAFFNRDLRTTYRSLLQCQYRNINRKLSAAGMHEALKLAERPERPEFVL

SMILES | 5-HT7 % Inhibition by plate position (human 5-HT7b receptor) | %inh 5-HT7 exp_1 (human 5-HT7b receptor) | %inh 5-HT7 exp_2 (human 5-HT7b receptor) | 5-HT1A % Inhibition by plate position (human 5-HT1A receptor) | %inh 5-HT1A average (human 5-HT1A receptor) | %inh 5-HT1A exp_1 (human 5-HT1A receptor) | %inh 5-HT1A exp_2 (human 5-HT1A receptor) | 5-HT6 % Inhibition by plate position (human 5-HT6 receptor) | %inh 5-HT6 average (human 5-HT6 receptor) | %inh 5-HT6 corrected* (human 5-HT6 receptor) | %inh 5-HT6 exp_1 (human 5-HT6 receptor) | %inh 5-HT6 exp_2 (human 5-HT6 receptor) | %inh 5-HT1A corrected* (human 5-HT1A receptor) | %inh 5-HT7 average (human 5-HT7b receptor)
N#CC1CCS(=O)(=O)C1 (stereo not drawn) [F2] | 20% | 21% | 19% | 0% | -0.934% | 12% | -14% | 22% | 22% | 22% | 22% | 22% | – | –
N#CCCN1CCc2ccccc21 [F4] | 3% | 1.81% | 4.42% | 0% | -7% | -1.29% | -12% | 23% | 23% | 23% | 26% | 20% | – | –
O=C(O)c1cccc(Nc2ncccn2)c1 [F5] | 12% | 11% | 13% | – | 10% | 9% | 11% | 50% | 50% | 50% | 58% | 42% | 10% | –
O=C(Nc1ccccc1)C1CC1 [F6] | 0% | -1.55% | -4% | – | 12% | 10% | 14% | 41% | 41% | 41% | 40% | 42% | 12% | -2.69%
Oc1nnc(-c2ccccc2)o1 [F7] | 1% | -12% | 14% | 0% | -4% | 1.6% | -10% | 14% | 14% | 14% | 15% | 14% | – | –
Cc1nccn1Cc1cccc(C#N)c1 [F8] | 9% | 14% | 3.57% | – | 10% | 7% | 13% | 41% | 41% | 41% | 40% | 42% | 10% | –
CC(CN)N1CCc2sccc2C1 (stereo not drawn) [F9] | 8% | 13% | 3.54% | – | 33% | 30% | 36% | 15% | 15% | 15% | 14% | 17% | 33% | –
NCC1(c2ccccc2)CCOCC1 [F10] | 6% | -0.903% | 13% | – | 11% | 10% | 12% | 23% | 23% | 23% | 20% | 25% | 11% | –
Oc1cnc(-c2ccccc2)nc1 [F11] | 0.572% | -8% | 9% | – | 6.48% | 14% | -1.43% | 41% | 41% | 41% | 42% | 39% | 6.48% | –
Cc1cc(C)c2c(=O)[nH]n(C)c2n1 [F12] | 11% | 14% | 7% | – | 5.64% | 4.73% | 6.55% | 34% | 34% | 34% | 35% | 32% | 5.64% | –
COc1ccc(C2=CCNCC2)cc1 [G1] | 19% | 17% | 20% | – | 17% | 14% | 20% | 49% | 49% | 49% | 49% | 49% | 17% | –
Cn1c(CO)nc2ccccc21 [G2] | 5% | 10% | 0.167% | 0% | -5% | 12% | -22% | 37% | 37% | 37% | 37% | 38% | – | –
CN(C)c1cc(CN)ccn1 [G3] | 0% | -1.11% | -35% | – | 11% | 13% | 10% | 16% | 16% | 16% | 16% | 16% | 11% | -18%
O=C(NC1CC1)c1ccccc1O [G4] | 0% | 1.81% | -25% | – | 1.71% | 3.42% | 0% | 24% | 24% | 24% | 28% | 20% | 1.71% | -12%
c1ccc2sc(N3CCNCC3)nc2c1 [G5] | 28% | 32% | 25% | – | 83% | 78% | 88% | 42% | 42% | 42% | 49% | 35% | 83% | –
O=C(O)C1CCCN(C(=O)N2CCCC2)C1 (stereo not drawn) [G6] | 8.53% | 10% | 7% | – | 5% | 1% | 9% | 27% | 27% | 27% | 29% | 25% | 5% | –
O=C1CCN(c2ccncc2)CC1 [G7] | 3.28% | -1.58% | 8% | – | 0.831% | -1.88% | 3.54% | 7% | 7% | 7% | 7.61% | 7% | 0.831% | –
O=C1CCN(c2ccccn2)CC1 [G8] | 29% | 34% | 24% | 0% | -7% | 4% | -18% | 7% | 7% | 7% | 0% | 15% | – | –
Nc1ccc(-c2ccccc2)cc1C(=O)O [G9] | 15% | 16% | 14% | – | 15% | 13% | 18% | 37% | 37% | 37% | 34% | 40% | 15% | –
O=C(CN1CCCC1)c1ccccc1Cl [G10] | 3.47% | 8% | -1% | – | 78% | 77% | 79% | 19% | 19% | 19% | 17% | 20% | 78% | –
